The record followed here is ChEMBL document CHEMBL1201862, “PubChem BioAssay data set” (2004).

Test systems include UACC-62; IGROV-1; CCRF-CEM; OVCAR-8; KM12; OVCAR-5; SF-268; SF-295; UACC-257; 786-0; HOP-92; M14; HCT-15; COLO 205; K562; SN12C; NCI-H23; MDA-MB-435; MDA-MB-231.
Holding throughout (assay): NCI anticancer screen, dose series, 48 h

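Each compound was tested at five concentrations against cells in 96-well plates for 48 hours. Abbreviation: GI50, concentration required for 50% inhibition of growth.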 Active and inactive are the calls of the source. Rule as the data show it: active = GI50 up to about 1.1 µM and inactive = higher.

Turning to `O=C1C2=C(SCCS2)C(=O)c2ccccc21`, the GI50 in the assay on UACC-62 is 1.65 µM (inactive); with IGROV-1 it was 1.77 µM (inactive); with CCRF-CEM, 0.783 µM (active); in the assay with OVCAR-8, 1.67 µM (inactive); in the assay with KM12 it was 1.77 µM (inactive); in the assay with OVCAR-5, 1.83 µM (inactive). Also, the GI50 with SF-268 was 1.66 µM (inactive); with SF-295, 1.76 µM (inactive); in the assay with UACC-257, 1.95 µM (inactive); with 786-0 it was 1.74 µM (inactive); in the assay on HOP-92 it was 1.68 µM (inactive); in the assay on M14, 1.87 µM (inactive). Moreover, the GI50 in the assay with HCT-15 is 1.7 µM; in the assay on COLO 205, 1.61 µM (inactive); in the assay on K562, 1.77 µM (inactive); in the assay with SN12C it was 1.95 µM (inactive); in the assay with NCI-H23, 1.85 µM (inactive).

As for `C=CCN(N=O)C(=O)N(CCCCC(NC(C)=O)C(=O)NCc1ccccc1)Cc1ccccc1` (stereo unspecified), the GI50 in the assay on UACC-62 was 34.6 µM (inactive); in the assay with IGROV-1 it was > 100 µM (inactive); in the assay with CCRF-CEM, 28.2 µM (inactive); in the assay on OVCAR-8 it was 35.2 µM (inactive); in the assay with KM12, 31.6 µM (inactive); in the assay on OVCAR-5 it was > 100 µM (inactive). In addition, the GI50 is 41.9 µM (inactive) with SF-268; 31 µM (inactive) in the assay with SF-295; 36.1 µM (inactive) in the assay with UACC-257; 28.6 µM (inactive) in the assay with 786-0; 13.1 µM (inactive) with HOP-92; 22.6 µM (inactive) with M14. Also, the GI50 in the assay on HCT-15 was 39.9 µM; with COLO 205, 23.8 µM (inactive); in the assay with K562, 26.9 µM (inactive); in the assay on SN12C, 41.5 µM (inactive); in the assay on NCI-H23, 46.5 µM (inactive).

As for `O=C1NC(=O)C2C(=O)NC(=O)C1C2(c1ccccc1)c1cc[nH]c1` (stereo unspecified), the GI50 in the assay on UACC-62, in the assay with IGROV-1, in the assay on CCRF-CEM, with OVCAR-8, with KM12 and in the assay with OVCAR-5 was > 100 µM (inactive) in each case. Moreover, the GI50 in the assay with SF-268, with SF-295, in the assay on UACC-257, with 786-0, in the assay with HOP-92 and with M14 was > 100 µM (inactive) in each case. The GI50 was over 100 µM in the assay on HCT-15; > 100 µM (inactive) in the assay on COLO 205; > 100 µM (inactive) in the assay with K562; > 100 µM (inactive) in the assay with SN12C; > 100 µM (inactive) in the assay with NCI-H23.

Take `Cc1ccc(S(=O)(=O)N/N=C(\CCN2CCCC2)CC(c2ccccc2)c2c(O)c3ccccc3oc2=O)cc1` (stereo unspecified): the GI50 in the assay on UACC-62 was > 100 µM (inactive); in the assay with IGROV-1, > 100 µM (inactive); with CCRF-CEM, 95.5 µM (inactive); in the assay on OVCAR-8, > 100 µM (inactive); in the assay with KM12, > 100 µM (inactive); with OVCAR-5 it was > 100 µM (inactive). The GI50 in the assay on SF-268 was > 100 µM (inactive); in the assay on SF-295, > 100 µM (inactive); in the assay with UACC-257 it was > 100 µM (inactive); in the assay on 786-0 it was > 100 µM (inactive); in the assay with HOP-92, 72.3 µM (inactive); with M14, > 100 µM (inactive). The GI50 in the assay with HCT-15 was over 100 µM; in the assay on K562, 88.9 µM (inactive); in the assay with SN12C it was > 100 µM (inactive); with NCI-H23, > 100 µM (inactive).

Take `Cc1cc2nc3c(C#N)c(-c4ccccc4)cc(Nc4cccc(C(F)(F)F)c4)n3c2cc1C`: the GI50 in the assay with CCRF-CEM was 3.6 µM (inactive); in the assay with OVCAR-8 it was 4.14 µM (inactive); in the assay with MDA-MB-435 it was 5.13 µM (inactive); in the assay on KM12, 4.07 µM (inactive); in the assay with MDA-MB-231 it was 3.43 µM (inactive); in the assay on OVCAR-5, 12.9 µM (inactive). The GI50 in the assay on SF-268 was 6.97 µM (inactive); in the assay on SF-295, 7.19 µM (inactive); in the assay with UACC-257 it was 3.48 µM (inactive); with 786-0 it was 4.4 µM (inactive); in the assay on M14, 4.78 µM (inactive); with HCT-15 it was 4.73 µM. The GI50 is 4.17 µM (inactive) in the assay with COLO 205, 0.392 µM (active) in the assay on K562, 3.68 µM (inactive) with SN12C and 5.25 µM (inactive) with NCI-H23.

For the molecule `O=C1c2ccccc2OP(=O)(OCC(F)(F)F)OC1(C(F)(F)F)C(F)(F)F` (stereo unspecified), the GI50 in the assay with UACC-62, in the assay with IGROV-1, with CCRF-CEM, in the assay with OVCAR-8, with KM12 and with OVCAR-5 was > 100 µM (inactive) throughout. The GI50 in the assay with SF-268, with SF-295, in the assay with UACC-257, in the assay with 786-0, with HOP-92 and in the assay with M14 was > 100 µM (inactive) each time. Also, the GI50 in the assay with HCT-15 is over 100 µM; in the assay on COLO 205 it was > 100 µM (inactive); with K562, > 100 µM (inactive); in the assay with SN12C, > 100 µM (inactive); in the assay with NCI-H23 it was > 100 µM (inactive).

In the case of `O=C(Cc1ccccc1[N+](=O)[O-])C(CO)c1ccccc1[N+](=O)[O-]` (stereo unspecified), the GI50 in the assay on UACC-62 is 83 µM (inactive); in the assay with IGROV-1, > 100 µM (inactive); with CCRF-CEM, 71.4 µM (inactive); in the assay on OVCAR-8 it was 89.5 µM (inactive); with KM12, > 100 µM (inactive); in the assay with OVCAR-5, > 100 µM (inactive). The GI50 is 35.2 µM (inactive) in the assay with SF-268; > 100 µM (inactive) in the assay on SF-295; 72.3 µM (inactive) in the assay on UACC-257; > 100 µM (inactive) in the assay with 786-0; 23.6 µM (inactive) in the assay with HOP-92; > 100 µM (inactive) with M14. Further, the GI50 with HCT-15 is over 100 µM; with COLO 205, > 100 µM (inactive); in the assay on K562 it was 71.1 µM (inactive); with SN12C it was > 100 µM (inactive); in the assay on NCI-H23, 45.3 µM (inactive).

Take `N#Cc1ccc(C(C2C(=O)NC(=O)NC2=O)C2C(=O)NC(=O)NC2=O)cc1`: the GI50 in the assay on UACC-62, in the assay with IGROV-1, in the assay on CCRF-CEM, in the assay on OVCAR-8, in the assay on KM12 and in the assay with OVCAR-5 was > 100 µM (inactive) each time. Besides, the GI50 in the assay on SF-268, in the assay with SF-295, in the assay on UACC-257, with 786-0, with HOP-92 and with M14 was > 100 µM (inactive) throughout. Also, the GI50 was over 100 µM in the assay with HCT-15; > 100 µM (inactive) in the assay on COLO 205; 77.1 µM (inactive) in the assay with K562; > 100 µM (inactive) with SN12C; > 100 µM (inactive) in the assay on NCI-H23.

For the molecule `C/C(=N\NC(=S)NC(CCC(=O)O)C(=O)O)c1cnccn1` (stereo unspecified), the GI50 in the assay on UACC-62, in the assay on IGROV-1, in the assay on CCRF-CEM, with OVCAR-8, with KM12 and with OVCAR-5 was > 100 µM (inactive) in each case. For the same molecule, the GI50 in the assay with SF-268, with SF-295, in the assay on UACC-257, in the assay on 786-0, in the assay on HOP-92 and in the assay with M14 was > 100 µM (inactive) throughout. Moreover, the GI50 in the assay on HCT-15 was over 100 µM; in the assay with COLO 205, > 100 µM (inactive); in the assay with K562 it was > 100 µM (inactive); in the assay on SN12C, > 100 µM (inactive); in the assay on NCI-H23 it was > 100 µM (inactive).

Consider `CCOC(=O)C1=C(OC(OCC)C(CC)[Se]c2ccccc2)CCC1` (stereo unspecified), for which the GI50 with UACC-62 is 17.8 µM (inactive); with IGROV-1 it was 25.6 µM (inactive); in the assay with CCRF-CEM, 11 µM (inactive); in the assay on OVCAR-8, 33.2 µM (inactive); in the assay on KM12 it was 39.4 µM (inactive); in the assay on OVCAR-5 it was 23.1 µM (inactive). Further, the GI50 in the assay with SF-268 was 18.7 µM (inactive); in the assay on SF-295, 16.9 µM (inactive); with UACC-257 it was 28 µM (inactive); in the assay on 786-0, 15.5 µM (inactive); in the assay on HOP-92 it was 19.3 µM (inactive); with M14, 15.1 µM (inactive). Also, the GI50 was 14.7 µM with HCT-15; 34.3 µM (inactive) in the assay on COLO 205; 44 µM (inactive) in the assay with K562; 17.1 µM (inactive) with SN12C; 12.5 µM (inactive) with NCI-H23.

Take `CCC/C(=N/NC(=O)C(N)=O)C(CC)C(=O)CCC(=O)N(Cc1ccccc1)Cc1ccccc1` (stereo unspecified): the GI50 with UACC-62, with IGROV-1, in the assay with CCRF-CEM, with OVCAR-8, with KM12 and with OVCAR-5 was > 100 µM (inactive) throughout. In addition, the GI50 with SF-268, with SF-295, with UACC-257, with 786-0, with HOP-92 and in the assay on M14 was > 100 µM (inactive) in each case. The GI50 in the assay with HCT-15 was over 100 µM; in the assay with COLO 205, > 100 µM (inactive); with K562 it was > 100 µM (inactive); in the assay with SN12C it was > 100 µM (inactive); in the assay with NCI-H23, > 100 µM (inactive).

Consider `COc1ccc(/C=N\N2C(=O)Cc3ccccc32)cc1`, for which the GI50 in the assay on UACC-62, in the assay with IGROV-1, with CCRF-CEM, in the assay with OVCAR-8, in the assay on KM12 and in the assay with OVCAR-5 was > 100 µM (inactive) each time. Moreover, the GI50 in the assay on SF-268 was 74.3 µM (inactive); in the assay on SF-295 it was 51.6 µM (inactive); with UACC-257, > 100 µM (inactive); in the assay with 786-0, > 100 µM (inactive); with HOP-92, 22.3 µM (inactive); with M14, 86.1 µM (inactive). Also, the GI50 is over 100 µM with HCT-15, > 100 µM (inactive) in the assay on COLO 205, 95.5 µM (inactive) in the assay with K562 and > 100 µM (inactive) in the assay on NCI-H23.
